# pKi: −log10 of the molar value. Entries after “also recorded” stand apart in the source; their conditions may differ.
# Legend:
# [1] = system: c-Jun phosphorylation (JNK activation) in CTL; assay: c-Jun phosphorylation in CTL during AICD (immunoblot); type: cell-based, human; settings: CTL re-stimulated with Mart-127-35 peptide after pre-incubation
# Procedure: FIG. 1. […] (A) Effect of the JNK inhibitor SP600125 on AICD in the MART-127-35 epitope specific CTL. Histogram represents FACS analysis of the percent of MART-127-35 epitope specific CTLs that were tetramer positive and annexin negative after restimulation with MAGE-3271-279 control peptide (M3) pulsed T2 cells or MART-127-35 peptide (M1) pulsed T2 cells either alone or re-stimulated after pre-incubation with JNK inhibitor SP600125, p38-kinase inhibitor SB203580, ERK1/2 inhibitor PD98059 or caspase-inhibitor z-VAD-fink. MAGE-3271-279. (B) JNK activation results in phosphorylation of c-Jun during AICD in CTL that is blocked by SP600125. […] (i) Jurkat cells were treated with PMA+ionomycin in the absence or presence of SP600125 and JNK activation (c-Jun phosphorylation) was assessed with anti-phospho-c-Jun antibody. […] (ii) Jurkat cells were treated with Staurosporine for 1 and 4 hrs in the absence (S) or presence of caspase inhibitor, z-VAD-fmk (CI), JNK inhibitor, SP600125 (SP) or ERK1/2 inhibitor PD98059 (PD) and cleavage of PARP was detected by immunoblotting, using actin as a loading control. […] Percent annexin positive cells in all samples were quantified by FACS analysis and shown below the blot
# Immunoblot analysis. […] Proteins bound to the resin were washed three times with RIPA buffer, re-suspended in sample buffer, and analyzed by SDS-PAGE and immunoblotting.
# [2] = system: AIF release in Jurkat cells; assay: AIF release in CD3 induced AICD in Jurkat cells; type: cell-based, human
# Source text: FIG. 14. Nuclear translocation of AIF and effect of SP600125 on the AIF release and such translocation. The MART-1 epitope specific CTLs generated in the in vitro CTL generation protocol were restimulated by the cognate epitope or a control epitope in the presence or absence of the JNK inhibitor SP600125. (A) Western blot of heavy membrane faction (HM) and cytosolic fraction (S-100) of control CTL (C) and CTLs restimulated by the cognate peptide (M1). As shown, AIF is released in the cytosol of CTLs encountering the cognate peptide without any release of cytochrome c. (B) Effect of SP600125 on AIF release in CD3 induced AICD in Jurkat cells. As shown, AIF is released without cytochrome c release in these cells and SP600125 interferes with the AIF release. (C) Densitometric analysis of the SP600125 effect on AIF release.
# [3] = system: MART-127-35 tetramer+/CD8+ CTLs; assay: Survival of antigen specific CTLs five days after secondary encounter of the epitope; type: cell-based, human; settings: day five in IL-15 after overnight co-culture with cognate epitope; inhibitor 25 μM then washed off
# Procedure: FIG. 13. Survival of the antigen specific CTLs following secondary encounter of the epitope in the presence of anthra[1,9-cd]pyrazol-6(2H)-one (SP600125) and recovery of function in the pyrazoloanthrone rescued CTLs. Effector cells were co-cultured with peptide pulsed T2 cells in the presence or absence of the kinase inhibitors (25 μM). The cultures were washed about 18 h later and then recultured in IL-15 containing medium. On day five, the numbers of the viable antigen specific CTLs were determined. […] The number (11%) of MART-127-35 tetramer^+/CD8^+ population exposed to MART-127-35 peptide pulsed T2 cells (T2/M1) is a reflection of loss of epitope specific CTLs from AICD. […] (B) IFN-γ response by the recovered populations (M3=MAGE-3271-279, M1=MART-127-35).
# Finally, the functional status of SP600125 rescued CTLs upon continuous culture was examined. After overnight exposure of the CTLs to the cognate epitope in the presence or absence of SP600125, the CTLs were washed and then maintained in continuous culture in IL-15 containing CM without the inhibitor. Five days after, the number of viable MART-127-35 tetramer positive cells were determined and their function was tested in the IFN-γ response assay. […] Remarkably, the rescued CTLs regained their capacity to synthesize IFN-γ (FIG. 13B).
# [4] = target: c-jun N-terminal kinase; settings: cited from earlier work
# [5] = system: phosphorylated Bim in CTL; assay: Generation of short phosphorylated Bim fragment in CTL during AICD; type: cell-based, human; settings: CTLs encountering the MART-1 peptide
# Source text: FIG. 16. Mitochondrial localization of JNK in the CTL. (A)—Heavy membrane fractions from CTLs in steady state (C), restimulated by the cognate peptide (M1) and control peptide (M3) and the corresponding cytosolic fractions (S-100) were probed for the presence for JNKs. As shown, JNK preferentially localized in the membrane fraction. (B)—The generation of short pBim fragment during AICD and the effect of SP600125 on the generation of this fragment. Mart-1 epitope specific control CTLs (c), and CTLs encountering the cognate peptide (M1), or encountering a control peptide (M3) and encountering the cognate peptide in the presence of SP600125 (SP) or encountering the cognate peptide in the presence of ERK1/2 inhibitor (PD)were probed with an anti-phosphorylated Bim antibody. A phosphorylated short fragment of Bim is generated in the CTLs encountering the MART-1 peptide and this is blocked by SP600125. (C)—Western blot of whole cell lysate of CTLs showing interaction between JNK and VDAC in CTLs (c=control, M1=CTL restimulated by the cognate peptide) Anti-CD8 Ab was used as a control antibody for immunoprecipitation.
compound,measurement,setting,value
"O=C1c2ccccc2-c2n[nH]c3cccc1c23 [SP600125, anthra[1,9-cd]pyrazol-6(2H)-one]",c-Jun activation (phosphorylation) in CTL during AICD,[1],blocked
same,AIF release in Jurkat cells,[2],interferes
same,fraction of starting epitope specific population recovered,[3],larger fraction
same,pKi,[4],~6.72
same,generation/phosphorylation of short phosphorylated Bim fragment,[5],inhibitable; also recorded: blocked

# From patent publication US20070003531A1, “Methods for improving immunotherapy by enhancing survival of antigen-specific cytotoxic T lymphocytes” (University of Connecticut, priority 2005, published 2007)
